These results are taken from PubChem BioAssay (NCI).

Holding throughout (assay): NCI-60 cell line screen, 48 h
Assay [1] concerns A498 renal.
In assay [2] the test system is SK-MEL-28 melanoma.
Assay [3] concerns OVCAR-3 ovarian.
Assay [4] concerns KM12 colon.
For assay [5], the system named is HCT-116 colon.
Assay [6] relates to EKVX NSCLC.
The subject of assay [7] is MALME-3M melanoma.
In assay [8] the test system is HL-60(TB) leukemia.
Assay [9] has as its system NCI-H23 lung.
Assay [10] relates to UACC-62 melanoma.

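Cells were grown in 96-well plates and exposed to each compound for 48 hours at five concentrations; endpoints were interpolated linearly between bracketing concentrations, or set to the highest concentration if not reached. GI50 marks 50% less growth. TGI: total growth inhibition.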

Consider `Cc1cc2cc3c(C)cc(=O)oc3c(C)c2o1`, for which the TGI in assay [1], in assay [2], in [3], in assay [4], in assay [5] and in [6] was above 100 µM each time. In addition, the TGI in assay [7], in assay [8], in assay [9] and in assay [10] was above 100 µM throughout.

For `C[C@]12CC[C@H](OCCC#N)CC1=CC[C@@H]1C2CC[C@]2(C)/C(=N/OCCC#N)CCC12` (stereo partly drawn), the TGI in [1], in assay [2], in assay [3], in assay [4], in assay [5] and in [6] was above 100 µM throughout. The TGI in assay [7], in [8], in assay [9] and in assay [10] was above 100 µM in each case.

For `Cc1cccc(C)c1NC(=O)CCc1nnc2s/c(=C\c3ccc(Cl)cc3)c(=O)n12`, the TGI is above 100 µM in [1]; above 100 µM in assay [2]; above 100 µM in [3]; above 100 µM in [4]; 57.2 µM in [5]; above 100 µM in assay [6]. Moreover, the TGI in [7], in assay [8], in assay [9] and in assay [10] was above 100 µM in each case.

On to `COC(=O)c1c2c(c(C)[n+]([O-])c1C)C(=O)C=C(NCc1ccc(OC)cc1)C2=O`, for which the GI50 in [1] is 1.59 µM; in [2], 3.2 µM; in assay [3], 0.795 µM; in assay [4], 1.67 µM; in [5], 2.4 µM; in assay [6], 1.92 µM. Moreover, the GI50 in assay [7] was 0.3 µM; in assay [8], 0.794 µM; in assay [9], 1.36 µM; in [10], 0.85 µM. The TGI came out at 6.21 µM in assay [1]; 10 µM in assay [2]; 2.29 µM in assay [3]; 6.63 µM in [4]; 7.08 µM in assay [5]; 5.24 µM in assay [6]. In addition, the TGI in assay [7] came out at 0.845 µM; in assay [8] it was 2.21 µM; in [9], 4.35 µM; in assay [10], 2.51 µM.

As for `COc1ccc(-c2nc3ncccn3c2/C=C/C(=O)c2cc(OC)c(OC)c(OC)c2)cc1`, the GI50 in assay [1] is 2.13 µM; in assay [2], 1.65 µM; in [3], 1.75 µM; in [4] it was 1.61 µM; in assay [5], 1.17 µM; in assay [6], 1.61 µM. Further, the GI50 was 1.81 µM in assay [7], 2.52 µM in [8], 1.35 µM in [9] and 1.82 µM in [10]. Further, the TGI in [1] was 6.28 µM; in [2] it was 3.27 µM; in [3], 4.79 µM; in [4], 3.04 µM; in assay [5] it was 2.39 µM; in [6], 6.06 µM. Moreover, the TGI is 17.1 µM in assay [7], above 100 µM in assay [8], 3.37 µM in assay [9] and 3.42 µM in assay [10].

`O=c1ccnc2c1ccc1[nH]cccc12`: the TGI in assay [1], in [2], in assay [3], in [4], in assay [5] and in assay [6] was above 100 µM throughout. Moreover, the TGI in assay [7], in assay [8], in assay [9] and in [10] was above 100 µM throughout.

For the compound `CC1(C)CC(n2cnc(-c3ccc(F)cc3)c2-c2ccnc(N)n2)CC(C)(C)N1`, the GI50 in assay [1] was above 25 µM; in [2], above 25 µM; in assay [3] it was above 25 µM; in [4], 18.1 µM; in [5], 15.1 µM; in [6] it was above 25 µM. In addition, the GI50 in [7], in [8], in assay [9] and in assay [10] was above 25 µM each time. In addition, the TGI in [1], in assay [2], in assay [3], in assay [4], in assay [5] and in [6] was above 25 µM each time. The TGI in [7], in assay [8], in assay [9] and in [10] was above 25 µM in each case.

With `Cc1ccc(NC(=O)CC(=O)n2nc(-c3ccccc3)c(N=Nc3ccccc3Cl)c2-c2ccccc2)cc1`, the TGI in assay [1], in assay [2], in [3], in [4], in assay [5] and in assay [6] was above 100 µM throughout. In addition, the TGI in [7], in assay [8], in [9] and in assay [10] was above 100 µM in each case. For the same compound, the figures for the GI50 in assay [3], in assay [4] and in assay [8] were above 100 µM, above 100 µM and 93.8 µM, respectively.

As to `O=C(O)CC12C3C4C5C3C1C5C42` (stereo not drawn), the TGI in assay [1], in [2], in assay [3], in assay [4], in assay [5] and in assay [6] was above 100 µM in each case. Moreover, the TGI in assay [7], in [8], in assay [9] and in [10] was above 100 µM throughout.
